Article PMC6199492, “Comprehensive Characterization of Toxoplasma Acyl Coenzyme A-Binding Protein TgACBP2 and Its Critical Role in Parasite Cardiolipin Metabolism” (mBio, 2018)

Biological target: T1, TgACBP2 (Toxoplasma gondii, UniProt A0A7J6JZP9)
T1 construct: gene TGRH88_042420; recombinant TgACBP2 with C-terminal GST tag (tag kept), expressed in E. coli and purified; native HA-tagged protein ~36 kDa
T1 sequence (A0A7J6JZP9 1-311): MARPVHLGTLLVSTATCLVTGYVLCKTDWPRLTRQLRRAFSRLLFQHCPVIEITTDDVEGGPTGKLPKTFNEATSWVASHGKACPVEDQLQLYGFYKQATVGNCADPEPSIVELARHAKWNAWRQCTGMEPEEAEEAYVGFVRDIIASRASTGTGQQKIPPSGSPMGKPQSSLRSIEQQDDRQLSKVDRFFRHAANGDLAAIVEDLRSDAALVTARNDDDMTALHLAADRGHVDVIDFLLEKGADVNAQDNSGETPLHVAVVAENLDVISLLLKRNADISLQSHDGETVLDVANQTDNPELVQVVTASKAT
Assay: fluorescence increase of NBD ligand upon binding, microplate reader
Conditions: labelled compound; 0.1 μM TgACBP2-GST, 0-0.25 μM ligand, PBS, room temperature, 5 min; ex 460 nm, em 540 nm; read-out: K (binding constant)

NBD-C16:0-CoA gave a Kd of 136 nM.
